pEC50: −log10 of the molar value. Active and inactive are the calls of the source. No cut-off for these calls is given here.
Assays:
[1] = tested on: Acanthamoeba hatchetti; test: Amoebicidal activity against Trophozoites of Acanthamoeba hatchetti 11DS in peptone yeast extract glucose medium at pH 7 after 24 hrs by hemocytometer using trypan blue stain; assay type: functional, organism-based
[2] = tested on: Acanthamoeba castellanii; test: Amoebicidal activity against excysted trophozoites of Acanthamoeba castellanii 4CL at 55 mM in peptone yeast extract glucose medium after 4 days by hemocytometer using trypan blue stain; assay type: functional
[3] = tested on: Acanthamoeba hatchetti; test: Amoebicidal activity against Trophozoites of Acanthamoeba hatchetti 11DS in peptone yeast extract glucose medium at pH 7 after 1 hr by hemocytometer using trypan blue stain; assay type: functional, organism-based
[4] = tested on: Acanthamoeba hatchetti; test: Amoebicidal activity against Trophozoites of Acanthamoeba hatchetti 11DS assessed as killing time at 55 mM in phosphate buffered saline at pH 7 by hemocytometer using trypan blue stain; assay type: functional
[5] = tested on: Acanthamoeba polyphaga; test: Amoebicidal activity against Trophozoites of Acanthamoeba polyphaga 5SU in phosphate buffered saline at pH 7 after 6 hrs by hemocytometer using trypan blue stain; assay type: functional, organism-based
[6] = tested on: Acanthamoeba polyphaga; test: Amoebicidal activity against excysted trophozoites of Acanthamoeba polyphaga 5SU at 55 mM in peptone yeast extract glucose medium after 11 days by hemocytometer using trypan blue stain; assay type: functional
[7] = tested on: Acanthamoeba polyphaga; test: Amoebicidal activity against Trophozoites of Acanthamoeba polyphaga 5SU assessed as log reduction in cell count at 10 mM in phosphate buffered saline at pH 5 after 1 hr by hemocytometer using trypan blue staining; assay type: functional, organism-based
[8] = tested on: Acanthamoeba castellanii; test: Amoebicidal activity against Trophozoites of Acanthamoeba castellanii 40AB assessed as log reduction in cell count at 10 mM in phosphate buffered saline at pH 7 after 6 hrs by hemocytometer using trypan blue stain; assay type: functional
[9] = tested on: Acanthamoeba polyphaga; test: Amoebicidal activity against Trophozoites of Acanthamoeba polyphaga 5SU assessed as killing time at 55 mM in phosphate buffered saline at pH 7 by hemocytometer using trypan blue stain; assay type: functional
[10] = tested on: Acanthamoeba polyphaga; test: Amoebicidal activity against Trophozoites of Acanthamoeba polyphaga 5SU assessed as log reduction in cell count at 10 mM in phosphate buffered saline at pH 7 after 6 hrs by hemocytometer using trypan blue staining; assay type: functional, organism-based
[11] = tested on: Acanthamoeba polyphaga; test: Amoebicidal activity against Trophozoites of Acanthamoeba polyphaga 5SU in peptone yeast extract glucose medium at pH 7 after 1 hr by hemocytometer using trypan blue stain; assay type: functional, organism-based
[12] = tested on: Acanthamoeba castellanii; test: Amoebicidal activity against Trophozoites of Acanthamoeba castellanii 4CL assessed as killing time at 10 mM in phosphate buffered saline at pH 7 by hemocytometer using trypan blue stain; assay type: functional
[13] = tested on: Acanthamoeba polyphaga; test: Amoebicidal activity against Trophozoites of Acanthamoeba polyphaga 5SU assessed as rounding of cells at 55 mM in phosphate buffered saline at pH 7 after 15 mins by hemocytometer using trypan blue stain; assay type: functional, organism-based
[14] = tested on: Acanthamoeba hatchetti; test: Amoebicidal activity against Trophozoites of Acanthamoeba hatchetti 11DS in peptone yeast extract glucose medium at pH 7 after 6 hrs by hemocytometer using trypan blue stain in presence of 68 mM ammonium chloride; assay type: functional, organism-based
[15] = tested on: Acanthamoeba polyphaga; test: Amoebicidal activity against Trophozoites of Acanthamoeba polyphaga 5SU in phosphate buffered saline at pH 7 after 6 hrs by hemocytometer using trypan blue stain in presence of 34 mM ammonium chloride; assay type: functional, organism-based
[16] = tested on: Acanthamoeba castellanii; test: Amoebicidal activity against Trophozoites of Acanthamoeba castellanii 40AB assessed as killing time at 20 mM in peptone yeast extract glucose medium at pH 7 by hemocytometer using trypan blue stain; assay type: functional
[17] = tested on: Acanthamoeba castellanii; test: Amoebicidal activity against excysted trophozoites of Acanthamoeba castellanii 40AB at 55 mM in peptone yeast extract glucose medium after 6 days by hemocytometer using trypan blue stain; assay type: functional
[18] = tested on: Acanthamoeba hatchetti; test: Amoebicidal activity against Trophozoites of Acanthamoeba hatchetti 11DS assessed as increase in reduction in cell count at 20 mM in peptone yeast extract glucose medium at pH 7 after 6 hrs by hemocytometer using trypan blue stain in presence of 580 mM ammonium chloride; assay type: functional, organism-based
[19] = tested on: Acanthamoeba polyphaga; test: Amoebicidal activity against Trophozoites of Acanthamoeba polyphaga 5SU assessed as complete loss of viability at 55 mM in phosphate buffered saline after 24 hrs by hemocytometer using trypan blue stain in presence of 190 mM ammonium chloride; assay type: functional, organism-based
[20] = tested on: Acanthamoeba hatchetti; test: Amoebicidal activity against Trophozoites of Acanthamoeba hatchetti 11DS in peptone yeast extract glucose medium at pH 7 after 24 hrs by hemocytometer using trypan blue stain in presence of 68 mM ammonium chloride; assay type: functional, organism-based
[21] = tested on: Acanthamoeba polyphaga; test: Amoebicidal activity against Trophozoites of Acanthamoeba polyphaga 5SU assessed as increase in reduction in cell count at 20 mM in peptone yeast extract glucose medium at pH 7 after 6 hrs by hemocytometer using trypan blue stain in presence of 68 mM ammonium chloride; assay type: functional, organism-based
[22] = tested on: Acanthamoeba polyphaga; test: Amoebicidal activity against Trophozoites of Acanthamoeba polyphaga 5SU in phosphate buffered saline at pH 7 after 24 hrs by hemocytometer using trypan blue stain in presence of 34 mM ammonium chloride; assay type: functional, organism-based
[23] = tested on: Acanthamoeba polyphaga; test: Amoebicidal activity against Trophozoites of Acanthamoeba polyphaga 5SU assessed as reduction killing time at 55 mM in phosphate buffered saline at pH 7 by hemocytometer using trypan blue stain in presence of 190 mM ammonium chloride; assay type: functional, organism-based
[24] = tested on: Acanthamoeba hatchetti; test: Amoebicidal activity against Trophozoites of Acanthamoeba hatchetti 11DS assessed as complete loss of viability at 55 mM in phosphate buffered saline after 24 hrs by hemocytometer using trypan blue stain in presence of 190 mM ammonium chloride; assay type: functional, organism-based
[25] = tested on: Acanthamoeba polyphaga; test: Amoebicidal activity against Trophozoites of Acanthamoeba polyphaga 5SU assessed as log reduction in cell count at 10 mM in phosphate buffered saline at pH 5 after 1 hr by hemocytometer using trypan blue stain in presence of 34 mM ammonium chloride; assay type: functional, organism-based
[26] = tested on: Acanthamoeba hatchetti; test: Amoebicidal activity against Trophozoites of Acanthamoeba hatchetti 11DS assessed as rounding of the cells at 0.16 M in peptone yeast extract glucose medium at pH 7 by hemocytometer using trypan blue stain; assay type: functional, organism-based
[27] = tested on: Acanthamoeba hatchetti; test: Amoebicidal activity against Trophozoites of Acanthamoeba hatchetti 11DS assessed as killing time at 10 mM in phosphate buffered saline at pH 7 by hemocytometer using trypan blue stain; assay type: functional
[28] = tested on: Acanthamoeba polyphaga; test: Amoebicidal activity against excysted trophozoites of Acanthamoeba polyphaga 5SU at 55 mM in peptone yeast extract glucose medium after 24 hrs by hemocytometer using trypan blue stain; assay type: functional
[29] = tested on: Acanthamoeba hatchetti; test: Amoebicidal activity against Trophozoites of Acanthamoeba hatchetti 11DS assessed as complete loss of viability at 55 mM in phosphate buffered saline incubated in xenic agar medium after 14 days by hemocytometer using trypan blue stain in presence of 190 mM ammonium chloride; assay type: functional, organism-based
[30] = tested on: Acanthamoeba hatchetti; test: Amoebicidal activity against excysted trophozoites of Acanthamoeba hatchetti 11DS at 55 mM in peptone yeast extract glucose medium after 4 days by hemocytometer using trypan blue stain; assay type: functional
[31] = tested on: Acanthamoeba hatchetti; test: Amoebicidal activity against Trophozoites of Acanthamoeba hatchetti 11DS assessed as log reduction in cell count at 20 mM in peptone yeast extract glucose medium at pH 7 after 6 hrs by hemocytometer using trypan blue stain; assay type: functional, organism-based
[32] = tested on: Acanthamoeba polyphaga; test: Amoebicidal activity against Trophozoites of Acanthamoeba polyphaga 5SU in peptone yeast extract glucose medium at pH 7 after 6 hrs by hemocytometer using trypan blue stain; assay type: functional, organism-based
[33] = tested on: Acanthamoeba castellanii; test: Amoebicidal activity against excysted trophozoites of Acanthamoeba castellanii 40AB at 55 mM in peptone yeast extract glucose medium after 4 days by hemocytometer using trypan blue stain; assay type: functional
[34] = tested on: Acanthamoeba hatchetti; test: Amoebicidal activity against excysted trophozoites of Acanthamoeba hatchetti 11DS at 55 mM in peptone yeast extract glucose medium after 24 hrs by hemocytometer using trypan blue stain; assay type: functional

Structure (SMILES): O=S(=O)(O)CCNCl
- pEC50 [1]: 2.13
- Activity [2]: 2000
- pEC50 [3]: 2.00
- Activity [4]: 30 min
- pEC50 [5]: 2.40
- EC90 [5]: 7.95 mM
- Activity [6]: 200000
- Activity [7]: Active
- Activity [8]: 2
- Activity [9]: 1 h
- Activity [10]: Active
- pEC50 [11]: 1.64
- Activity [12]: 36 h
- Activity [13]: Active
- pEC50 [14]: 1.98
- pEC50 [15]: 2.30
- EC90 [15]: 9.08 mM
- Activity [16]: 36 h
- Activity [17]: 38000
- Activity [18]: inactive
- Activity [19]: Active
- pEC50 [20]: 1.99
- Activity [21]: inactive
- pEC50 [22]: 2.30
- EC90 [22]: 9.03 mM
- Activity [23]: inactive
- Activity [24]: Active
- Activity [25]: Active
- Activity [26]: Active
- Activity [27]: 30 h
- Activity [28]: 1000
- Activity [29]: inactive
- Activity [30]: 100000
- Activity [31]: Active
- pEC50 [32]: 1.93
- Activity [33]: 13000
- Activity [34]: 4600
